Test results taken from PubChem BioAssay AID1794812.
Inconclusive results are not listed.

Molecular target: Excitatory amino acid transporter 3 (Homo sapiens) (UniProt P43005)
Test: EAAT3 transporter activation by amino acid substrates – membrane potential dye, HEK-293 overexpressing cells, dose response (AID 1794812)
Conditions: HEK-293 SLC1A1 OE, FLIPR membrane potential dye

Excitatory amino acid transporter 3 (Homo sapiens), sequence (P43005 whole entry, looked up): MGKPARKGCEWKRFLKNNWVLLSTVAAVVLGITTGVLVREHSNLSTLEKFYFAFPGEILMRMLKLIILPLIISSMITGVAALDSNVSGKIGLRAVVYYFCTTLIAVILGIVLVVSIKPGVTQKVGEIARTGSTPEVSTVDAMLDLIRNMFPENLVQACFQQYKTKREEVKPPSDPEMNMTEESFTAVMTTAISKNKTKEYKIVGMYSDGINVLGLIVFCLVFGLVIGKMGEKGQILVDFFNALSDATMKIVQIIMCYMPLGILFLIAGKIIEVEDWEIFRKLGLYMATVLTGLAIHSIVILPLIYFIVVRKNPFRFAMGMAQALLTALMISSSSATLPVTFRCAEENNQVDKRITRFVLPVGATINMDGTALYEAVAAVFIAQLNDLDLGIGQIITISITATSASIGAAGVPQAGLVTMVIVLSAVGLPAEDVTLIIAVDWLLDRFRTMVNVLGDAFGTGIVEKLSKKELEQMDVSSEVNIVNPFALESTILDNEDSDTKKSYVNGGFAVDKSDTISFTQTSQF

EC50: 161 µM
SMILES: N[C@@H](CS)C(=O)O
